# Measurements taken from patent US12281119B2, “Imidazo[2,1-f][1,2,4]triazin-4-amine derivatives as TLR7 agonist” (BEIGENE, LTD., priority 2019, dated 2025).
# Biological target: T1, human TLR7 (Homo sapiens, UniProt Q9NYK1)
# T1 sequence (Q9NYK1 27-1049): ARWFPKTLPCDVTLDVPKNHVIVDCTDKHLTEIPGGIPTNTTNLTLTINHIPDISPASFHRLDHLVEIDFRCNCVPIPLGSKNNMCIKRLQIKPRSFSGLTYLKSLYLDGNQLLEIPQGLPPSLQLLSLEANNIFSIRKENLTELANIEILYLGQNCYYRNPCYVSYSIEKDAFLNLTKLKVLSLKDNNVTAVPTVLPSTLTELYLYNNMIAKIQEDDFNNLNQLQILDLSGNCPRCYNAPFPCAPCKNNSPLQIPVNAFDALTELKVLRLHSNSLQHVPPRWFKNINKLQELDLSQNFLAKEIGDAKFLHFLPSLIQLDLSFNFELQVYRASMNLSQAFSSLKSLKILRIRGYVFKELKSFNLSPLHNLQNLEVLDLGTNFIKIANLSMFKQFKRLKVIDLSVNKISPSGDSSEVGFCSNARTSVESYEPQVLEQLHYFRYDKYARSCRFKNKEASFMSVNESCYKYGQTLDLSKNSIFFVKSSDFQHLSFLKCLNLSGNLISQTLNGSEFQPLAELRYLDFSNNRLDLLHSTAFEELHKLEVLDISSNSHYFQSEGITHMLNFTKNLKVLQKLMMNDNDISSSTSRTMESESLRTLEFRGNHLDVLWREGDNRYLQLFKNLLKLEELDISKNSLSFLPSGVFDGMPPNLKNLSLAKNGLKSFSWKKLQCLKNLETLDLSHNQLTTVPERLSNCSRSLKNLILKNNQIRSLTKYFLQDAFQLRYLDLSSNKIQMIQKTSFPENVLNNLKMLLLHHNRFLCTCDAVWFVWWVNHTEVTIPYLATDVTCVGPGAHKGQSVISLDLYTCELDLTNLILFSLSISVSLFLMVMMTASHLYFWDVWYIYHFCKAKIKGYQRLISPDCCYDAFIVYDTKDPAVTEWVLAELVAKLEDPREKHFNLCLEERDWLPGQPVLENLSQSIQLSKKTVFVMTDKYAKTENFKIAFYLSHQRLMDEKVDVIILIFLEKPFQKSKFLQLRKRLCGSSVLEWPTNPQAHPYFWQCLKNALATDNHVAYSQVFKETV
# Assay: HEK293-Blue hTLR7 reporter assay (QUANTI-BLUE, SEAP readout)
# Format: cell-based
# Set-up: host or cells: HEK293 (HEK-Blue-hTLR7)
# Conditions: HEK-Blue-hTLR7 cells, QUANTI-BLUE assay (A1-A76), 24 hrs
# Procedure: HEK293-Blue hTLR7 Reporter Assay:
# HEK-Blue-hTLR7 cell line (Invivogen, Cat. No. hkb-htlr7) was designed so that the expression of the secreted embryonic alkaline phosphatase (SEAP) was induced by activating NF-κ and AP-1 via stimulating human TLR7 with TLR7 agonists.
# HEK-Blue-hTLR7 cells were seeded at a density of 4×10^4 cells/well in a volume of 180 μL in a 96-well plate in DMEM (Cat. No. 11965-092) supplemented with 10% (v/v) heat-inactivated fetal bovine serum (FBS) (Gibco, 10099-1441), 100 U/ml penicillin and 100 μg/ml streptomycin (Gibco, 15140122) containing […], […] and 10% (v/v) heat-inactivated fetal bovine serum. The cells were settled for 5 hrs, then treated with increasing amounts of tested compounds at 37° C. for 24 hrs. Then 20 μL of the supernatant from each well was incubated with 180 uL Quanti-blue substrate solution at 37° C. for 10-30 mins before the activity of the SEAP was determined at 620-655 nm using a spectrophotometer. The EC50 value for each compound was calculated with GraphPad Prism software using the sigmoidal dose-response function.
row,SMILES,EC50 [µM]
1,"CCCCOc1nc(N)c2ncc(Cc3ccc(CN4CCCC4)cc3)n2n1 [Compound A1, 2-butoxy-7-(4-(pyrrolidin-1-ylmethyl)benzyl)imidazo[2,1-f][1,2,4]triazin-4-amine]",0.9
2,"CCCCOc1nc(N)c2ncc(Cc3ccc(OCCCN(C)C)cc3)n2n1 [Compound A2, 2-butoxy-7-(4-(3-(dimethylamino)propoxy)benzyl)imidazo[2,1-f][1,2,4]triazin-4-amine]",0.92
3,"CCCCOc1nc(N)c2ncc(Cc3ccc(CN4CCOCC4)cc3)n2n1 [Compound A3, 2-butoxy-7-(4-(morpholinomethyl)benzyl)imidazo[2,1-f][1,2,4]triazin-4-amine]",> 10
4,"CCCCOc1nc(N)c2ncc(Cc3ccc(N(C)CCN(C)C)nc3)n2n1 [Compound A4, N^1-(5-((4-amino-2-butoxyimidazo[2,1-f][1,2,4]triazin-7-yl)methyl)pyridin-2-yl)-N^1,N^2,N^2-trimethylethane-1,2-diamine]",1.85
5,"CCCCOc1nc(N)c2ncc(Cc3ccc(CN4CCCCC4)cc3)n2n1 [Compound A5, 2-butoxy-7-(4-(piperidin-1-ylmethyl)benzyl)imidazo[2,1-f][1,2,4]triazin-4-amine]",1.27
6,"CCCCOc1nc(N)c2ncc(Cc3ccc(CN4CCN(C)CC4)cc3)n2n1 [Compound A6, 2-butoxy-7-(4-((4-methylpiperazin-1-yl)methyl)benzyl)imidazo[2,1-f][1,2,4]triazin-4-amine]",1.51
7,"CCCCOc1nc(N)c2ncc(Cc3cccc(CN4CCCCC4)c3)n2n1 [Compound A7, 2-butoxy-7-(3-(piperidin-1-ylmethyl)benzyl)imidazo[2,1-f][1,2,4]triazin-4-amine]",> 10
8,"CCCCOc1nc(N)c2ncc(Cc3ccc4c(c3)CN(C(C)C)CC4)n2n1 [Compound A9, 2-butoxy-7-((2-isopropyl-1,2,3,4-tetrahydroisoquinolin-7-yl)methyl)imidazo[2,1-f][1,2,4]triazin-4-amine]",> 10
9,"CCCCOc1nc(N)c2ncc(Cc3cccc(CN4CCCC4)c3)n2n1 [Compound A11, 2-butoxy-7-(3-(pyrrolidin-1-ylmethyl)benzyl)imidazo[2,1-f][1,2,4]triazin-4-amine]",> 10
10,"CCCCOc1nc(N)c2ncc(Cc3cccc(CN4CCOCC4)c3)n2n1 [Compound A12, 2-butoxy-7-(3-(morpholinomethyl)benzyl)imidazo[2,1-f][1,2,4]triazin-4-amine]",> 10
11,"CCCCOc1nc(N)c2ncc(Cc3cccc(CN4CCN(C)CC4)c3)n2n1 [Compound A13, 2-butoxy-7-(3-((4-methylpiperazin-1-yl)methyl)benzyl)imidazo[2,1-f][1,2,4]triazin-4-amine]",> 10
12,"CCCCOc1nc(N)c2ncc(Cc3ccccc3CN3CCOCC3)n2n1 [Compound A14, 2-butoxy-7-(2-(morpholinomethyl)benzyl)imidazo[2,1-f][1,2,4]triazin-4-amine]",> 10
13,"CCCCOc1nc(N)c2ncc(Cc3ccccc3CN3CCCCC3)n2n1 [Compound A15, 2-butoxy-7-(2-(piperidin-1-ylmethyl)benzyl)imidazo[2,1-f][1,2,4]triazin-4-amine]",> 10
14,"CC(C)COc1nc(N)c2ncc(Cc3cccc(CN4CCCC4)c3)n2n1 [Compound A16, 2-isobutoxy-7-(3-(pyrrolidin-1-ylmethyl)benzyl)imidazo[2,1-f][1,2,4]triazin-4-amine]",> 10
15,"COCCOc1nc(N)c2ncc(Cc3cccc(CN4CCCC4)c3)n2n1 [Compound A17, 2-(2-methoxyethoxy)-7-(3-(pyrrolidin-1-ylmethyl)benzyl)imidazo[2,1-f][1,2,4]triazin-4-amine]",> 10
16,"Nc1nc(OCCCC(F)(F)F)nn2c(Cc3cccc(CN4CCCC4)c3)cnc12 [Compound A18, 7-(3-(pyrrolidin-1-ylmethyl)benzyl)-2-(4,4,4-trifluorobutoxy)imidazo[2,1-f][1,2,4]triazin-4-amine]",> 10

row,SMILES,EC50 [µM]
1,"CCCCOc1nc(N)c2ncc(Cc3ccccc3CN3CCCC3)n2n1 [Compound A19, 2-butoxy-7-(2-(pyrrolidin-1-ylmethyl)benzyl)imidazo[2,1-f][1,2,4]triazin-4-amine]",> 10
2,"CCCCOc1nc(N)c2ncc(Cc3ccc(CN4CCCC4)cc3F)n2n1 [Compound A20, 2-butoxy-7-(2-fluoro-4-(pyrrolidin-1-ylmethyl)benzyl)imidazo[2,1-f][1,2,4]triazin-4-amine]",1.75
3,"CCCCOc1nc(N)c2ncc(Cc3ccc(OCCCN4CCCCC4)cc3)n2n1 [Compound A21, 2-butoxy-7-(4-(3-(piperidin-1-yl)propoxy)benzyl)imidazo[2,1-f][1,2,4]triazin-4-amine]",2.87
4,"CCCCOc1nc(N)c2ncc(Cc3ccc(OCCCN4CCOCC4)cc3)n2n1 [Compound A22, 2-butoxy-7-(4-(3-morpholinopropoxy)benzyl)imidazo[2,1-f][1,2,4]triazin-4-amine]",5.71
5,"CCCCOc1nc(N)c2ncc(Cc3cccc(OCCCN(C)C)c3)n2n1 [Compound A23, 2-butoxy-7-(3-(3(dimethylamino)propoxy)benzyl)imidazo[2,1-f][1,2,4]triazin-4-amine]",> 10
6,"CCCCOc1nc(N)c2ncc(Cc3ccc(F)c(OCCCN(C)C)c3)n2n1 [Compound A24, 2-butoxy-7-(3-(3-(dimethylamino)propoxy)-4-fluorobenzyl)imidazo[2,1-f][1,2,4]triazin-4-amine]",> 10
7,"CCCCOc1nc(N)c2ncc(Cc3cccc(-c4ccc(CN5CCCC5)cc4)c3)n2n1 [Compound A25, 2-butoxy-7-((4′-(pyrrolidin-1-ylmethyl)-[1,1′-biphenyl]-3-yl)methyl)imidazo[2,1-f][1,2,4]triazin-4-amine]",> 10
8,"CCCCOc1nc(N)c2ncc(Cc3cc(CN4CCCC4)ccc3F)n2n1 [Compound A26, 2-butoxy-7-(2-fluoro-5-(pyrrolidin-1-ylmethyl)benzyl)Imidazo[2,1-f][1,2,4]triazin-4-amine]",> 10
9,"CCCCOc1nc(N)c2ncc(Cc3ccccc3OCCCN(C)C)n2n1 [Compound A27, 2-butoxy-7-(2-(3-(dimethylamino)propoxy)benzyl)imidazo[2,1-f][1,2,4]triazin-4-amine]",> 10
10,"CCCCOc1nc(N)c2ncc(Cc3ccc(OCCCN4CCCC4)cc3)n2n1 [Compound A28, 2-butoxy-7-(4-(3-(pyrrolidin-1-yl)propoxy)benzyl)imidazo[2,1-f][1,2,4]triazin-4-amine]",1.79
11,"CCCCOc1nc(N)c2ncc(Cc3ccc(OCCCN(CC)CC)cc3)n2n1 [Compound A29, 2-butoxy-7-(4-(3-(diethylamino)propoxy)benzyl)imidazo[2,1-f][1,2,4]triazin-4-amine]",2.6
12,"CCCCOc1nc(N)c2ncc(Cc3ccc(-c4ccc(CN5CCCC5)cc4)cc3)n2n1 [Compound A30, 2-butoxy-7-((4′-(pyrrolidin-1-ylmethyl)-[1,1′-biphenyl]-4-yl)methyl)imidazo[2,1-f][1,2,4]triazin-4-amine]",3.52
13,"CCCCOc1nc(N)c2ncc(Cc3ccc(OCCCN)cc3)n2n1 [Compound A31, 7-(4-(3-aminopropoxy)benzyl)-2-butoxyimidazo[2,1-f][1,2,4]triazin-4-amine]",> 10
14,"CCCCOc1nc(N)c2ncc(Cc3ccc(OCCCN(C)C)nc3)n2n1 [Compound A32, 2-butoxy-7-((6-(3-(dimethylamino)propoxy)pyridin-3-yl)methyl)imidazo[2,1-f][1,2,4]triazin-4-amine]",0.861
15,"CCCCOc1nc(N)c2ncc(Cc3ccc(CC4CCNCC4)cc3)n2n1 [Compound A33, 2-butoxy-7-(4-(piperidin-4-ylmethyl)benzyl)imidazo[2,1-f][1,2,4]triazin-4-amine]",1.06
